Data on 14 compounds can be found in patent US9365551B2, “2-(benzyloxy) benzamides as LRRK2 kinase inhibitors” (Glaxo Group Limited, priority 2010, dated 2016).

SMILES strings stand for the structures.

Assay [1] addresses T1, 6His-Tev-LRRK2 (1326-2527) (Homo sapiens, UniProt Q5S007).
T1 construct: A LRRK2 cDNA encoding residues 1326-2527 was received from Dundee University; made in house; host or cells: Spodoptera frugiperda (Sf9) insect cells, baculovirus (pFB-HTb)
T1 sequence (Q5S007 1326-2527): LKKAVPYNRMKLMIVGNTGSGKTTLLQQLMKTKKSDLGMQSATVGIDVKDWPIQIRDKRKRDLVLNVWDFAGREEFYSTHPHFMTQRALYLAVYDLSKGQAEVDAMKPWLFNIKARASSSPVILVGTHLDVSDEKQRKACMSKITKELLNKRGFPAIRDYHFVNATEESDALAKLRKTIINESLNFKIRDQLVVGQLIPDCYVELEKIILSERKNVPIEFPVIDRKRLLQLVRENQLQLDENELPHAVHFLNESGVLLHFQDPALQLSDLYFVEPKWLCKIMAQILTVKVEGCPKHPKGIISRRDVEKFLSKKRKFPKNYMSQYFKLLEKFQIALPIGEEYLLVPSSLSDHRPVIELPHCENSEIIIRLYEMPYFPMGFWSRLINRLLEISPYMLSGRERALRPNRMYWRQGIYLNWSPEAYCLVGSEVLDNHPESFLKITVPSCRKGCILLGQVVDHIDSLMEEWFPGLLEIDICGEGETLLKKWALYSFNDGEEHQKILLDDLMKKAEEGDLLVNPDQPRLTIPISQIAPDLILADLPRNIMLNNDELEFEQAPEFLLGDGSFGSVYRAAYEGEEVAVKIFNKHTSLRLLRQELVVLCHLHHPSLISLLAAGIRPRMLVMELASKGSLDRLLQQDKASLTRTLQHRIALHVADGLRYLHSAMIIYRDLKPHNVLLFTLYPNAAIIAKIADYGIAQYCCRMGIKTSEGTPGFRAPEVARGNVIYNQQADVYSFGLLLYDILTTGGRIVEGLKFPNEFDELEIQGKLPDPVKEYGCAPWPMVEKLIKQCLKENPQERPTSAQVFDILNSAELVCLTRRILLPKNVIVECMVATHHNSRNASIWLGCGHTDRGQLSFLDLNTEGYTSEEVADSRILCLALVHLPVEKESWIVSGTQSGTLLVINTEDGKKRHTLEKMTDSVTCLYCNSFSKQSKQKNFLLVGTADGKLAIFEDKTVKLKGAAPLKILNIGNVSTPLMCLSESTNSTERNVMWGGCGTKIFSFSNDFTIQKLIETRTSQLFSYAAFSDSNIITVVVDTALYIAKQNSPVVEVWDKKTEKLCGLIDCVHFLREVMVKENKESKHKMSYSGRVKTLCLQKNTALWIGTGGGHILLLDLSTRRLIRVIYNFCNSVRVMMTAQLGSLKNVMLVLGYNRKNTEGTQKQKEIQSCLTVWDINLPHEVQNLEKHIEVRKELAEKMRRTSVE
The assay can be described thus: LRRK2 peptide substrate assay. In kind it is biochemical. The settings on record: mean pIC50 of multiple test results. As for the experimental part:
(§1) Compounds of formula (I) may be tested for in vitro kinase activity in accordance with the following assays, using the non natural, in vitro, substrates moesin and the Longer Biotin-LRRKtide. Moesin and a shorter version of the peptide were identified as substrates in Jaleel et al. (2007, Biochem J, 405: 307-317).
LRRK2 Peptide Substrate Assay
a) 100 nl of a 1:4 serial dilution of test compound with a top final assay concentration of 30 μM is added to certain wells in a low volume 384 well black plate. 100 nl of DMSO is used in certain wells as controls.
(§2) b) 3 μl enzyme solution (80 nM purified recombinant 6His-Tev-LRRK2 (1326-2527) in assay buffer: 50 mM Hepes (pH 7.2), 10 mM MgCl2, 150 mM NaCl, 5% glycerol, 0.0025% triton X-100 and 1 mM DTT) is added to certain wells. 3 μl assay buffer is added to certain wells as a 100% inhibition (no enzyme) control. c) After incubation at room temperature for 30 minutes, 3 μl substrate solution (2 μM Biotin-LRRKtide peptide substrate and ATP at Km in assay buffer) is added to each well. Plates are then incubated for a further 1-2 hours at room temperature (incubation time varies depending upon rate and linearity of reaction with differing enzyme batches). d) 6 μl detection solution (50 nM Streptavidin SureLight® APC (PerkinElmer), 4 nM Eu-W1024 labelled anti-rabbit IgG antibody (PerkinElmer), 1:500 dilution (dilution determined on a batch to batch basis) of Phospho-Ezrin (Thr567)/Radixin (Thr564)/Moesin (Thr558) Polyclonal Antibody (New England Biolabs) and 60 mM EDTA in buffer: 40 mM Hepes (pH 7.2), 150 mM NaCl, 0.03% BSA) is added to each well. Plates are then incubated for a further 2 hours at room temperature before reading on a suitable plate reader (Excitation 330 nm, emission 620 nm (Eu) and 665 nm (APC)). Data is analysed using ActivityBase software (IDBS). LRRK2 AlphaScreen Desensitised Protein Substrate Assay a) 100 nl of a 1:4 serial dilution of test compound with a top final assay concentration of 30 μM is added to certain wells in a low volume 384 well black plate. 100 nl of DMSO is used in certain wells as controls. b) 3 μl enzyme solution (80 nM purified recombinant 6His-Tev-LRRK2 (1326-2527) in assay buffer: 50 mM Hepes (pH 7.2), 10 mM MgCl2, 150 mM NaCl, 5% glycerol, 0.0025% triton X-100 and 1 mM DTT) is added to certain wells. 3 μl assay buffer is added to certain wells as a 100% inhibition (no enzyme) control. c) After incubation at room temperature for 30 minutes, 3 μl substrate solution (200 nM GST-PS-Moesin (400-577) and 2 mM ATP in assay buffer) is added to each well. Plates are then incubated for 20 minutes at room temperature. d) 6 μl detection solution (1:250 dilution of AlphaLisa Protein A Acceptor beads (PerkinElmer), 1:64 dilution of AlphaLisa Gluthathione Donor beads (PerkinElmer) and 1:600 dilution (dilution determined on a batch to batch basis) of Phospho-Ezrin (Thr567)/Radixin (Thr564)/Moesin (Thr558) Polyclonal Antibody (New England Biolabs) in a buffer: 50 mM Hepes (pH 7.5), 250 mM NaCl, 60 mM EDTA, 1% PEG and 0.01% Brij 35) is added to each well. Plates are then incubated for a further 2 hours at room temperature in the dark before reading on an EnVision™ plate reader with AlphaScreen HTS turbo option module and AlphaScreen settings. Data is analysed using ActivityBase software (IDBS). Pharmacological Data

The target in assay [2] is T1, 6His-Tev-LRRK2 (1326-2527). The assay is described as follows: LRRK2 AlphaScreen desensitised protein substrate assay. The assay is classed as biochemical. The settings on record: mean pIC50 of multiple test results. As for the experimental part:
as §1, §2
(Alpha assays give light when donor and acceptor beads are brought close together.)

[3] abbreviates: stated as threshold, read-out: pIC50 in the LRRK2 peptide substrate assay (bounds) (converted).
The mark [4] stands for this setting: stated as threshold, read-out: pIC50 in the LRRK2 alphascreen desensitised protein substrate assay (bounds) (converted).
The mark [5] stands for this setting: Biotin-LRRKtide peptide substrate, ATP at Km, read-out: LRRK2 peptide substrate assay (pIC50) (converted).
Setting [6] is: GST-PS-Moesin (400-577) substrate, 2 mM ATP, read-out: LRRK2 alphascreen desensitized protein substrate assay (pIC50) (converted).

`Cn1cc(-c2cc(OCc3ccc(F)cc3)c(C(=O)Nc3ccnnc3)cc2CN2CCOCC2)cn1` [Example 14, 2-{[(4-Fluorophenyl)methyl]oxy}-4-(1-methyl-1H-pyrazol-4-yl)-5-(4-morpholinylmethyl)-N-4-pyridazinylbenzamide]: the IC50 in assay [1] (setting [3]) was no more than 1260 nM; in assay [2] (setting [4]) it was no more than 25100 nM.
For `Cn1cc(-c2cc(C(=O)Nc3cccnc3)c(OCc3ccc(F)cc3)cc2CN2CCOCC2)cn1` [Example 17, 2-{[(4-Fluorophenyl)methyl]oxy}-5-(1-methyl-1H-pyrazol-4-yl)-4-(4-morpholinylmethyl)-N-3-pyridinylbenzamide], the IC50 in assay [1] (setting [5]) was 50.1 nM; in assay [1] (setting [3]) it was no more than 100 nM; in assay [2] (setting [6]) it was 158 nM; in assay [2] (setting [4]) it was no more than 316 nM.
For `Cc1nocc1NC(=O)c1cc(-c2cnn(C)c2)c(CN2CCOCC2)cc1OCc1ccc(F)cc1` [Example 18, 2-{[(4-Fluorophenyl)methyl]oxy}-N-(3-methyl-4-isoxazolyl)-5-(1-methyl-1H-pyrazol-4-yl)-4-(4-morpholinylmethyl)benzamide] the same measures were 12.6 nM, no more than 100 nM, 398 nM and no more than 25100 nM.
For `Cn1cc(-c2cc(C(=O)Nc3cccnc3)c(OCc3ccc(F)cc3F)cc2CN2CCOCC2)cn1` [Example 20, 2-{[(2,4-Difluorophenyl)methyl]oxy}-5-(1-methyl-1H-pyrazol-4-yl)-4-(4-morpholinylmethyl)-N-3-pyridinylbenzamide] the same measures were 63.1 nM, no more than 100 nM, 200 nM and no more than 316 nM.
As for `Cc1nocc1NC(=O)c1cc(-c2cnn(C)c2)c(CN2CCOCC2)cc1OCc1ccc(F)cc1F` [Example 22, 2-{[(2,4-Difluorophenyl)methyl]oxy}-N-(3-methyl-4-isoxazolyl)-5-(1-methyl-1H-pyrazol-4-yl)-4-(4-morpholinylmethyl)benzamide], the IC50 in assay [1] (setting [3]) is greater than 25100 nM; in assay [2] (setting [4]) it was no more than 25100 nM.
As for `Cn1cc(-c2cc(C(=O)Nc3cccnc3)c(OCc3ccccc3)cc2C(=O)N2CCOCC2)cn1` [Example 23, 5-(1-Methyl-1H-pyrazol-4-yl)-4-(4-morpholinylcarbonyl)-2-[(phenylmethyl)oxy]-N-3-pyridinylbenzamide], the IC50 in assay [1] (setting [5]) is 12.6 nM; in assay [1] (setting [3]), no more than 100 nM; in assay [2] (setting [6]) it was 200 nM; in assay [2] (setting [4]), no more than 316 nM.
`Cn1cc(-c2cc(C(=O)Nc3ccnnc3)c(OCc3ccccc3)cc2C(=O)N2CCOCC2)cn1` [Example 24, 5-(1-Methyl-1H-pyrazol-4-yl)-4-(4-morpholinylcarbonyl)-2-[(phenylmethyl)oxy]-N-4-pyridazinylbenzamide]: the IC50 in assay [1] (setting [3]) is no more than 1260 nM; in assay [2] (setting [4]) it was no more than 25100 nM.
Regarding `Cc1nocc1NC(=O)c1cc(-c2cnn(C)c2)c(C(=O)N2CCOCC2)cc1OCc1ccccc1` [Example 25, N-(3-Methyl-4-isoxazolyl)-5-(1-methyl-1H-pyrazol-4-yl)-4-(4-morpholinylcarbonyl)-2-[(phenylmethyl)oxy]benzamide], the IC50 in assay [1] (setting [3]) is no more than 100 nM; in assay [2] (setting [4]), no more than 25100 nM.
Take `Cn1cc(-c2cc(C(=O)Nc3cccnc3)c(OCc3ccc(F)cc3)cc2C(=O)N2CCOCC2)cn1` [Example 26, 2-{[(4-Fluorophenyl)methyl]oxy}-5-(1-methyl-1H-pyrazol-4-yl)-4-(4-morpholinylcarbonyl)-N-3-pyridinylbenzamide]: the IC50 in assay [1] (setting [3]) was no more than 100 nM; in assay [2] (setting [4]) it was no more than 316 nM.
Turning to `Cn1cc(-c2cc(C(=O)Nc3ccnnc3)c(OCc3ccc(F)cc3)cc2C(=O)N2CCOCC2)cn1` [Example 27, 2-{[(4-Fluorophenyl)methyl]oxy}-5-(1-methyl-1H-pyrazol-4-yl)-4-(4-morpholinylcarbonyl)-N-4-pyridazinylbenzamide], the IC50 in assay [1] (setting [5]) is 50.1 nM; in assay [1] (setting [3]) it was no more than 100 nM; in assay [2] (setting [6]) it was 1580 nM; in assay [2] (setting [4]), no more than 25100 nM.
Turning to `Cn1cc(-c2cc(OCc3ccc(F)cc3)c(C(=O)Nc3cccnc3)cc2C(=O)N2CCOCC2)cn1` [Example 28, 2-{[(4-Fluorophenyl)methyl]oxy}-4-(1-methyl-1H-pyrazol-4-yl)-5-(4-morpholinylcarbonyl)-N-3-pyridinylbenzamide], the results for the IC50 in assay [1] (setting [3]) and in assay [2] (setting [4]) were no more than 1260 nM and no more than 25100 nM, respectively.
Turning to `Cn1cc(-c2cc(C(=O)Nc3cccnc3)c(OCc3ccccc3)cc2C(=O)N2CCCCC2)cn1` [Example 31, 5-(1-Methyl-1H-pyrazol-4-yl)-2-[(phenylmethyl)oxy]-4-(1-piperidinylcarbonyl)-N-3-pyridinylbenzamide], the IC50 in assay [1] (setting [5]) was 6.31 nM; in assay [1] (setting [3]), no more than 10 nM; in assay [2] (setting [6]), 50.1 nM; in assay [2] (setting [4]), no more than 316 nM.
The corresponding values for `CN(C)C(=O)c1cc(OCc2ccccc2)c(C(=O)Nc2cccnc2)cc1-c1cnn(C)c1` [Example 32] are 50.1 nM, no more than 100 nM, 200 nM and no more than 316 nM.
On to `O=C(Nc1cccnc1)c1cc(C(F)(F)F)c(CN2CCOCC2)cc1OCc1ccccc1` [Example 33, 2-(Benzyloxy)-4-(morpholinomethyl)-N-(pyridin-3-yl)-5-(trifluoromethyl)benzamide], for which the IC50 in assay [1] (setting [3]) was no more than 100 nM; in assay [2] (setting [4]), no more than 316 nM.
